Laboratory results reported in article PMC8121805, “Discovery of first-in-class inhibitors of ASH1L histone methyltransferase with anti-leukemic activity” (Nature Communications, 2021).
Where “and” joins values, the source holds several entries; their conditions need not be identical. Identical values can stand only once.

Assays:
Type in all cases: cell-based, human
[1] = test system: MLL leukemia cells (MV4;11, MOLM13, KOPN8, RS4;11); experiment: MTT cell viability assay, MLL leukemia cells as a group; conditions: Homo sapiens, MLL leukemia cells
Description: (§1) Human leukemia cells K562, MV4;11 and RS4;11 (purchased from ATCC) and KOPN8, MOLM13 (purchased from DSMZ) were cultured in RPMI 1640 (Invitrogen) supplemented with 10% heat inactivated (h.i.) FBS and 1% penicillin/streptomycin (Invitrogen). SET2 cells (purchased from DSMZ) were cultured in RPMI 1640 supplemented with 20% h.i. FBS and 1% penicillin/streptomycin. Cells were plated at 1 × 10^5 to 2 × 10^5 cells/mL depending on cell line and treated with 0.25% DMSO or varying concentrations of compounds and incubated at 37 °C, 5% CO2 incubator for 7 days. Media was changed on day 3 or 4 and compounds were resupplied. […] Cell suspensions (100 μL) were transferred to the 96-well plates for each sample in quadruplicate at the time of media change. At day 7, 10 µL of MTT reagent (M6494, Molecular Probes™) was added to each well of the 96 well plate and incubated at 37 °C for 4 h. The formazan was then solubilized by adding 100 µL acidified 10% SDS solution and incubated at 37 °C overnight. Plates were read for absorbance at 570 nm using a PHERAstar BMG microplate reader. The experiments were performed two times in quadruplicates with calculation of mean and SD for each condition. Data were analyzed in Prism 8.0.0 to obtain GI50 values.
Supplementary Figure 4. Cell viability assay for AS-6 in MLL leukemia cell lines. Titration curves from the MTT cell viability assay performed after 7 days of treatment of human MLL1- […]
replicates. Representative graphs are shown from two independent MTT experiments performed […]
(§2) Supplementary Figure 7. […] (a)
Titration curves from the MTT cell viability assay performed after 4, 7, and 11 (or 10) days of […]
Titration curves from the MTT cell viability assay performed after 7 days of treatment of KOPN8 , MOLM13 and MV4;11 cell lines harboring MLL1 translocation (MLL1-r) or K562 cell line (non- […]
Representative graphs are shown from two independent MTT experiments performed for each cell line. GI50 values correspond to […]

[2] = test system: KOPN8 cells; experiment: MTT cell viability assay; conditions: Fig S7a
Description: as §1, §2
(§3) Titration curves from the MTT cell viability assay performed after 4, 7, and 11 (or 10) days of
(§4) Titration curves from the MTT cell viability assay performed after 7 days of treatment of KOPN8 ,
(§5) MOLM13 and MV4;11 cell lines harboring MLL1 translocation (MLL1-r) or K562 cell line (non-
(§6) Representative graphs are shown
(§7) from two independent MTT experiments performed for each cell line. GI50 values correspond to […]

[3] = test system: K562 cells; experiment: MTT cell viability assay; conditions: for % activity: Fig S7b
Description: as §1, §2, §3, §4, §5, §6, §7

[4] = test system: MOLM13 cells; experiment: MTT cell viability assay; conditions: Fig S7b
Description: (§8) FBS and 1% penicillin/streptomycin. […] Media was changed on day 3 or 4 and compounds were resupplied. […] Cell suspensions (100 μL) were transferred to the 96-well plates for each sample in quadruplicate at the time of media change. At day 7, 10 µL of MTT reagent (M6494, Molecular Probes™) was added to each well of the 96 well plate and incubated at 37 °C for 4 h. The formazan was then solubilized by adding 100 µL acidified 10% SDS solution and incubated at 37 °C overnight. Plates were read for absorbance at 570 nm using a PHERAstar BMG microplate reader. The experiments were performed two times in quadruplicates with calculation of mean and SD for each condition. Data were analyzed in Prism 8.0.0 to obtain GI50 values.
as §2, §3, §4, §5, §6
(§9) from two independent MTT experiments performed for each cell line.

[5] = test system: MV4;11 cells; experiment: MTT cell viability assay; conditions: for MV4;11 % activity: Fig S7a
Description: as §8, §2, §3, §4, §5, §6, §9

NC(=S)c1cccc(-c2cn(C3CCN(S(=O)(=O)C(F)(F)F)CC3)c3cc(CNC(=O)C4CNC4)ccc23)c1 [AS-85]
GI50 [1]: 5 to 25 µM | KOPN8 % activity ([2]; log[AS-85] -4.60206, d4): 16.3539% and 14.6687% and 8.541% and 8.847% | KOPN8 % activity ([2]; log[AS-85] -4.60206, d7): 5.4864% | KOPN8 % activity ([2]; log[AS-85] -4.60206, d10): 12.6028% and 11.8131% and 12.208% | KOPN8 % activity ([2]; log[AS-85] -4.90309, d4): 78.3991% and 80.3907% and 79.1651% and 80.3906% | KOPN8 % activity ([2]; log[AS-85] -4.90309, d7): 47.9023% and 50.2997% and 49.1932% and 51.4062% | KOPN8 % activity ([2]; log[AS-85] -4.90309, d10): 23.001% and 25.765% and 16.1566% and 29.977% | KOPN8 % activity ([2]; log[AS-85] -5.20412, d4): 76.2543% and 85.293% and 81.9226% and 91.2677% | KOPN8 % activity ([2]; log[AS-85] -5.20412, d7): 72.4297% and 74.2739% and 78.5154% and 71.5076% | KOPN8 % activity ([2]; log[AS-85] -5.20412, d10): 57.6176% and 47.8776% and 61.0398% and 75.3866% | KOPN8 % activity ([2]; log[AS-85] -5.50515, d4): 81.7694% and 85.9058% and 95.8637% and 96.7828% | KOPN8 % activity ([2]; log[AS-85] -5.50515, d7): 82.5726% and 92.5311% and 77.2245% and 78.5154% | KOPN8 % activity ([2]; log[AS-85] -5.50515, d10): 103.817% and 88.6805% and 64.9885% and 80.7832% | KOPN8 % activity ([2]; log[AS-85] -5.80618, d4): 78.2459% and 90.8081% and 100.766% and 94.0253% | KOPN8 % activity ([2]; log[AS-85] -5.80618, d7): 80.7284% and 79.9908% and 94.5597% and 75.0115% | KOPN8 % activity ([2]; log[AS-85] -5.80618, d10): 93.8137% and 85.6532% and 79.9934% and 79.7302% | KOPN8 % activity ([2]; log[AS-85] -6.10721, d4): 86.825% and 91.4209% and 95.8637% and 91.5741% | KOPN8 % activity ([2]; log[AS-85] -6.10721, d7): 99.9078% and 107.284% and 86.6298% and 85.5233% | KOPN8 % activity ([2]; log[AS-85] -6.10721, d10): 118.032% and 101.579% and 87.2326% and 93.1556% | KOPN8 % activity ([2]; log[AS-85] -6.40824, d4): 98.6212% and 103.37% and 102.911% and 95.0977% | KOPN8 % activity ([2]; log[AS-85] -6.40824, d7): 100.461% and 105.072% and 99.7234% and 94.7441% | KOPN8 % activity ([2]; log[AS-85] -6.40824, d10): 81.3096% and 91.971% and 84.7318% and 80.9148% | % activity ([3]; K562, log[AS-85] -4.60206): 94.8724% and 99.1495% and 96.3791% and 94.0462% | % activity ([3]; K562, log[AS-85] -4.90309): 126.464% and 120.486% and 116.938% and 123.451% | % activity ([3]; K562, log[AS-85] -5.20412): 111.154% and 105.225% and 103.767% and 109.259% | % activity ([3]; K562, log[AS-85] -5.50515): 104.836% and 103.329% and 104.35% and 109.745% | % activity ([3]; K562, log[AS-85] -5.80618): 94.1434% and 95.2126% and 95.6501% and 103.183% | % activity ([3]; K562, log[AS-85] -6.10721): 95.2612% and 103.524% and 101.142% and 100.073% | % activity ([3]; K562, log[AS-85] -6.40824): 94.0462% and 95.8931% and 100.705% and 97.4484% | effect on growth/proliferation of K562 cells ([3]; leukemia cells without MLL1 translocations): no effect | % activity ([4]; MOLM-13, log[AS-85] -4.60206): 46.6646% and 47.2766% and 46.175% and 47.0318% | % activity ([4]; MOLM-13, log[AS-85] -4.90309): 81.426% and 94.7674% and 77.6316% and 82.4051% | % activity ([4]; MOLM-13, log[AS-85] -5.20412): 87.0563% and 95.9914% and 92.6867% and 98.1946% | % activity ([4]; MOLM-13, log[AS-85] -5.50515): 82.6499% and 85.9547% and 94.1555% and 88.7699% | % activity ([4]; MOLM-13, log[AS-85] -5.80618): 80.9364% and 84.3635% and 82.1603% and 93.6659% | % activity ([4]; MOLM-13, log[AS-85] -6.10721): 97.5826% and 103.213% and 93.6659% and 105.539% | % activity ([4]; MOLM-13, log[AS-85] -6.40824): 70.6548% and 70.0428% and 76.1628% and 72.1236% | MV4;11 % activity ([5]; log[AS-85] -4.60206, d4): 15.9329% and 16.3522% and 18.0892% and 16.4121% | MV4;11 % activity ([5]; log[AS-85] -4.60206, d7): 5.045% and 5.128% and 5.211% | MV4;11 % activity ([5]; log[AS-85] -4.60206, d11): 1.161% and 1.032% and 1.118% | MV4;11 % activity ([5]; log[AS-85] -4.90309, d4): 70.8595% and 67.0859% and 71.758% and 64.1509% | MV4;11 % activity ([5]; log[AS-85] -4.90309, d7): 25.0571% and 25.9705% and 23.8115% and 22.3998% | MV4;11 % activity ([5]; log[AS-85] -4.90309, d11): 9.6743% and 10.0613% and 9.029% and 8.943% | MV4;11 % activity ([5]; log[AS-85] -5.20412, d4): 102.965% and 99.1914% and 99.9102% and 86.1336% | MV4;11 % activity ([5]; log[AS-85] -5.20412, d7): 53.1243% and 51.7127% and 52.7922% and 54.6191% | MV4;11 % activity ([5]; log[AS-85] -5.20412, d11): 37.1063% and 36.8053% and 36.9343% and 41.621% | MV4;11 % activity ([5]; log[AS-85] -5.50515, d4): 92.5427% and 88.3498% and 97.8736% and 88.7691% | MV4;11 % activity ([5]; log[AS-85] -5.50515, d7): 76.7075% and 69.8983% and 73.8011% and 68.8188% | MV4;11 % activity ([5]; log[AS-85] -5.50515, d11): 72.8797% and 78.2113% and 64.4953% and 71.1168% | MV4;11 % activity ([5]; log[AS-85] -5.80618, d11): 77.7384% and 83.5429% and 90.8524% | MV4;11 % activity ([5]; log[AS-85] -6.10721, d4): 94.4594% and 94.1599% and 94.5792% and 108.955% | MV4;11 % activity ([5]; log[AS-85] -6.10721, d7): 101.951% and 92.1528% and 106.186% and 104.11% | MV4;11 % activity ([5]; log[AS-85] -6.10721, d11): 89.8205% and 93.8192% and 105.127% and 95.5821% | MV4;11 % activity ([5]; log[AS-85] -6.40824, d4): 98.1731% and 105.9% and 87.9305% and 107.996% | MV4;11 % activity ([5]; log[AS-85] -6.40824, d7): 98.879% and 95.8896% and 100.374% and 104.858% | MV4;11 % activity ([5]; log[AS-85] -6.40824, d11): 115.404% and 96.872% and 95.3671% and 92.3573% | % activity ([5]; Fig S7b, MV4;11, log[AS-85] -5.80618): 90.492% and 84.4301% and 90.3259% and 90.8242%
